Data from patent US9856279B2 (AGIOS PHARMACEUTICALS, INC, priority 2011, dated 2018).
Like-named read-outs stand apart in the source and are kept apart here.

What was measured:
[1] = system: HT1080 cells; assay: Cellular assay for IDH1m inhibitors: inhibition of 2-HG production (LC-MS, 48 hours) in HT1080 cells; type: cell-based; settings: Homo sapiens
Procedure, shortened: (§1)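 Cells were seeded at 5000/well in DMEM with 10% FBS, incubated overnight, then treated with compound (0.2% DMSO final) for 48 h at 37° C. Medium 2-HG was quantified by LC-MS. IC50 is the concentration reducing 2-HG by 50% versus DMSO control, and CellTiter-Glo viability was read at 72 h.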

[2] = target: IDH1 R132H (Homo sapiens, UniProt O75874, R132H); assay: Assay for IDH1 R132H inhibitors (NADPH/aKG, resazurin detection); type: biochemical; settings: enzyme assay of Example 12; read-out: IDH1R132H IC50
IDH1 R132H, sequence (O75874 whole entry R132H): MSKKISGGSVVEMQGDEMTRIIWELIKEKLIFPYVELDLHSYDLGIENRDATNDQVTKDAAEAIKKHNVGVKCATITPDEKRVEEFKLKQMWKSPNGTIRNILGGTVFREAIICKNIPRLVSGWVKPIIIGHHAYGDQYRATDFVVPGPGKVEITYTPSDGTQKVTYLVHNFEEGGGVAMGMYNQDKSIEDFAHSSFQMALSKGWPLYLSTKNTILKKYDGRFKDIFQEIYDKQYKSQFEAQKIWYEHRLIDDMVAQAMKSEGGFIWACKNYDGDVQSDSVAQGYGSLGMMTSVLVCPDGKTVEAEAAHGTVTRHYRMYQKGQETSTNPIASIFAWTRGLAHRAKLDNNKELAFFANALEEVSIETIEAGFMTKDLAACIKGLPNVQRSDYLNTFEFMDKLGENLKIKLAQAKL
Procedure, shortened: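 Read-out is resorufin fluorescence (Ex544/Em590) 5 min after adding a 30 μM resazurin detection mix. Before that, mutant enzyme (0.2 μg/ml in its mix) ran 50 min at room temperature with compound, 8 uM NADPH and 2 mM aKG (mix levels) in Tris pH 7.5 with NaCl, MgCl2, BSA.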

[3] = system: U87MG cells; assay: Cellular assay for IDH1m inhibitors: inhibition of 2-HG production (LC-MS, 48 hours) in U87MG cells; type: cell-based; settings: Homo sapiens, U-87 MG
Procedure, shortened: as §1

[4] = HT-1080, inhibition of 2-HG production, HT1080 cells, read-out: HT1080 IC50
[5] = inhibition of 2-HG production, U87R132H cells, read-out: U87R132H IC50

Compound | IC50 [1, 4] [µM] | IC50 [2] [nM] | IC50 [3, 5] [µM] | IC50 ([1]; HT-1080, read-out: HT1080 IC50 (μM)) [µM] | IC50 ([3]; read-out: U87R132H IC50 (μM)) [µM]
C=Cc1cc(-c2c(C3CC3)nc(N3CCN(C(=O)CCCOC)[C@H](C(C)C)C3)c(C#N)c2C)ccn1 [Compound 788, (R)-2-cyclopropyl-6-(3-isopropyl-4-(4-methoxybutanoyl)piperazin-1-yl)-4-methyl-2′-vinyl-3,4′-bipyridine-5-carbonitrile] | < 0.5 | < 500 | < 0.5 | – | –
C=CC(=O)N1CCC=C(c2c(C3CC3)nc(N3CCN(C(=O)C[C@H]4CCO4)[C@H](C4CC4)C3)c(C#N)c2C)C1 [Compound 789, 5-(1-acryloyl-1,2,5,6-tetrahydropyridin-3-yl)-6-cyclopropyl-2-((R)-3-cyclopropyl-4-(2-((R)-oxetan-2-yl)acetyl)piperazin-1-yl)-4-methylnicotinonitrile] | < 0.5 | < 500 | < 0.5 | – | –
COCCC(=O)N1CCN(c2nc(C3CC3)c(Nc3cc(C#N)ccn3)cc2C#N)C[C@H]1C1CC1 [Compound 792, (R)-5-(4-cyanopyridin-2-ylamino)-6-cyclopropyl-2-(3-cyclopropyl-4-(3-methoxypropanoyl)piperazin-1-yl)nicotinonitrile] | 1 to 10 | < 500 | 1 to 10 | – | –
C=Cc1cnnc(-c2c(C3CC3)nc(N3CCN(C(=O)C[C@H]4CCO4)[C@H](C(C)C)C3)c(C#N)c2C)c1 [Compound 793, 6-cyclopropyl-2-((R)-3-isopropyl-4-(2-((R)-oxetan-2-yl)acetyl)piperazin-1-yl)-4-methyl-5-(5-vinylpyridazin-3-yl)nicotinonitrile] | < 0.5 | < 500 | < 0.5 | – | –
C=Cc1cc(-c2cc(C#N)c(N3CCN(C(=O)CC[C@@H]4CCO4)[C@H](C4CC4)C3)nc2C2CC2)ccn1 [Compound 794, 2-cyclopropyl-6-((R)-3-cyclopropyl-4-(3-((R)-oxetan-2-yl)propanoyl)piperazin-1-yl)-2′-vinyl-[3,4′-bipyridine]-5-carbonitrile] | < 0.5 | < 500 | < 0.5 | – | –
C=Cc1cc(-c2c(C3CC3)nc(N3CCN(C(=O)CCc4ccco4)[C@H](C4CC4)C3)c(C#N)c2C)ccn1 [Compound 796, (R)-2-cyclopropyl-6-(3-cyclopropyl-4-(3-(furan-2-yl)propanoyl)piperazin-1-yl)-4-methyl-2′-vinyl-3,4′-bipyridine-5-carbonitrile] | < 0.5 | < 500 | < 0.5 | – | –
C=Cc1cc(-c2c(C3CC3)nc(N3CCN(C(=O)CCC4CCCC4)[C@H](C4CC4)C3)c(C#N)c2C)ccn1 [Compound 797, (R)-6-(4-(3-cyclopentylpropanoyl)-3-cyclopropylpiperazin-1-yl)-2-cyclopropyl-4-methyl-2′-vinyl-3,4′-bipyridine-5-carbonitrile] | < 0.5 | < 500 | < 0.5 | – | –
C=Cc1cc(Nc2c(C3CC3)nc(N3CCN(C(=O)CCO)[C@H](C(C)C)C3)c(C#N)c2C)ccn1 [Compound 799, (R)-6-cyclopropyl-2-(4-(3-hydroxypropanoyl)-3-isopropylpiperazin-1-yl)-4-methyl-5-((2-vinylpyridin-4-yl)amino)nicotinonitrile] | < 0.5 | < 500 | < 0.5 | – | –
C=Cc1cc(-c2cc(C#N)c(N3CCN(C(=O)CCC4CCCO4)[C@H](C4CC4)C3)nc2C2CC2)ccn1 (stereo partly drawn) [Compound 800, 2-cyclopropyl-6-((3R)-3-cyclopropyl-4-(3-(tetrahydrofuran-2-yl)propanoyl)piperazin-1-yl)-2′-vinyl-3,4′-bipyridine-5-carbonitrile] | < 0.5 | < 500 | < 0.5 | – | –
C=Cc1cc(-c2cc(C#N)c(N3CCN(C(=O)CC4CCCO4)[C@H](C4CC4)C3)nc2C2CC2)ccn1 (stereo partly drawn) [Compound 801, 2-cyclopropyl-6-((3R)-3-cyclopropyl-4-(2-(tetrahydrofuran-2-yl)acetyl)piperazin-1-yl)-2′-vinyl-[3,4′-bipyridine]-5-carbonitrile] | < 0.5 | < 500 | < 0.5 | – | –
C=Cc1cc(-c2c(C3CC3)nc(N3CCN(C(=O)CCC4CCO4)[C@H](C4CC4)C3)c(C#N)c2C)ccn1 (stereo partly drawn) [Compound 803, 2-cyclopropyl-6-((3R)-3-cyclopropyl-4-(3-(oxetan-2-yl)propanoyl)piperazin-1-yl)-4-methyl-2′-vinyl-[3,4′-bipyridine]-5-carbonitrile] | < 0.5 | < 500 | < 0.5 | – | –
C=Cc1cc(-c2cc(C#N)c(N3CCN(C(=O)CCCOP(=O)(OC(C)(C)C)OC(C)(C)C)[C@H](C4CC4)C3)nc2C2CC2)ccn1 [Compound 804, (R)-di-tert-butyl 4-(4-(5-cyano-2-cyclopropyl-2′-vinyl-3,4′-bipyridin-6-yl)-2-cyclopropylpiperazin-1-yl)-4-oxobutyl phosphate] | < 0.5 | < 500 | 0.5 to 1 | – | –
C=Cc1cc(-c2c(C3CC3)nc(N3CCN(C(=O)CC4CCCO4)[C@H](C4CC4)C3)c(C#N)c2C)ccn1 (stereo partly drawn) [Compound 805, 2-cyclopropyl-6-((3R)-3-cyclopropyl-4-(2-(tetrahydrofuran-2-yl)acetyl)piperazin-1-yl)-4-methyl-2′-vinyl-[3,4′-bipyridine]-5-carbonitrile] | < 0.5 | < 500 | < 0.5 | – | –
C=Cc1cc(-c2c(C3CC3)nc(N3CCN(C(=O)CC4CCC(=O)O4)[C@H](C4CC4)C3)c(C#N)c2C)ccn1 (stereo partly drawn) [Compound 806, 2-cyclopropyl-6-((3R)-3-cyclopropyl-4-(2-(5-oxotetrahydrofuran-2-yl)acetyl)piperazin-1-yl)-4-methyl-2′-vinyl-[3,4′-bipyridine]-5-carbonitrile] | < 0.5 | < 500 | < 0.5 | – | –
C=Cc1cc(-c2cc(C#N)c(N3CCN(C(=O)CCOP(=O)(O)O)[C@H](C4CC4)C3)nc2C2CC2)ccn1 [Compound 810, Sodium (R)-3-(4-(5-cyano-2-cyclopropyl-2′-vinyl-[3,4′-bipyridin]-6-yl)-2-cyclopropylpiperazin-1-yl)-3-oxopropyl phosphate] | – | 500 to 1000 | – | < 0.5 | < 0.5
C=Cc1cc(-c2c(C3CC3)nc(N3CCN(C(=O)CN4CCC4=O)[C@H](C4CC4)C3)c(C#N)c2C)ccn1 [Compound 811] | < 0.5 | < 500 | < 0.5 | – | –
C=Cc1ccnc(Nc2cc(C#N)c(N3CCN(C(=O)CCC4CCO4)[C@H](C4CC4)C3)nc2C2CC2)c1 (stereo partly drawn) [Compound 812, 6-cyclopropyl-2-((3R)-3-cyclopropyl-4-(3-(oxetan-2-yl)propanoyl)piperazin-1-yl)-5-((4-vinylpyridin-2-yl)amino)nicotinonitrile] | < 0.5 | < 500 | < 0.5 | – | –
C=Cc1ccnc(Nc2cc(C#N)c(N3CCN(C(=O)CC4CCCO4)[C@H](C4CC4)C3)nc2C2CC2)c1 (stereo partly drawn) [Compound 813, 6-cyclopropyl-2-((3R)-3-cyclopropyl-4-(2-(tetrahydrofuran-2-yl)acetyl)piperazin-1-yl)-5-((4-vinylpyridin-2-yl)amino)nicotinonitrile] | < 0.5 | < 500 | < 0.5 | – | –
